Laboratory results published in patent US4042693A, “Derivatives of 1,2,4-thiadiazine” (A. Christiaens Societe Anonyme, priority 1975, dated 1977).

System: paw of rats
Test: Anti-inflammatory test: carrageenan-induced rat paw swelling (plethysmography), oral
Assay type: in vivo
Conditions: oral route one hour before carrageenan injection, swelling determined 4 hours after injection, versus control group, dose not given
Method: The compounds to be tested are given as freshly prepared solutions or suspensions by oral route one hour before injecting the paw of rats with carrageenan which is a known inflammatory agent.
The inflammatory agent (carrageenan) either in solution or suspension is then injected into the plantar tissue of the right hind paw of each rat, the left paw remaining untreated and serving as control. Each animal receives, for example, 0.05 ml of an aqueous solution containing 1% by weight of carrageenan and 0.9% of sodium chloride.
4 Hours after the injection of the inflammatory agent, the importance of swelling is determined by plethysmography and is expressed as a percent of the volume of the control paw.
The anti-inflammatory effect expressed as a percentage of inhibition is obtained by comparison between rats treated with the anti-inflammatory compound and a control group of rats.

Structure (SMILES) | % inhibition of acute oedema [%]
O=S1(=O)N=C(c2ccccc2)N(c2cccc(C(F)(F)F)c2)c2ccncc21 [Example 1, 3-phenyl-4-metatrifluoromethylphenyl-4H-pyridino-[4,3-e]-1,2,4-thiadiazine-1,1-dioxide] | 53.6
O=S1(=O)N=C(c2ccc(Cl)cc2)N(c2cc(Cl)cc(Cl)c2)c2ccncc21 [Example 2, 3-parachlorophenyl-4-(3',5'-dichlorophenyl)-4H-pyridino-[4,3-e]-1,2,4-thiadiazine-1,1-dioxide] | 57
CCc1cccc(N2C(c3ccc(Cl)cc3)=NS(=O)(=O)c3cnccc32)c1 [Example 3, 3-parachlorophenyl-4-(3'-ethylphenyl)-4H-pyrido-[4,3-e]-1,2,4-thiadiazine-1,1-dioxide] | 60
COc1cccc(N2C(c3ccccc3Cl)=NS(=O)(=O)c3cnccc32)c1 [Example 4, 3-orthochlorophenyl-4-(3-methoxyphenyl)-4H-pyrido-[4,3-e]-1,2,4-thiadiazine-1,1-dioxide] | 40
